In general, IC50 refers to the midpoint of a concentration-inhibition curve. As usually defined, the AC50 is the concentration giving half of the maximal activity seen.

We go through 20 compounds from ChEMBL document CHEMBL3627649, “Identification of Substituted Naphthotriazolediones as Novel Tryptophan 2,3-Dioxygenase (TDO) Inhibitors through Structure-Based Virtual Screening” (J Med Chem, 2015).

Each structure is given as a SMILES string. Some results are limits rather than exact numbers.

Test [1] concerns the target Tryptophan 2,3-dioxygenase (Homo sapiens, UniProt P48775). Nature of the test: Inhibition of recombinant human TDO expressed in Escherichia coli incubated for 1 hr measured by absorbance assay.
The target in test [2] is Indoleamine 2,3-dioxygenase 1 (Homo sapiens, UniProt P14902). Nature of the test: Inhibition of recombinant human IDO expressed in Escherichia coli incubated for 1 hr measured by fluorescence assay.
Sequence of Indoleamine 2,3-dioxygenase 1 (P14902 whole entry): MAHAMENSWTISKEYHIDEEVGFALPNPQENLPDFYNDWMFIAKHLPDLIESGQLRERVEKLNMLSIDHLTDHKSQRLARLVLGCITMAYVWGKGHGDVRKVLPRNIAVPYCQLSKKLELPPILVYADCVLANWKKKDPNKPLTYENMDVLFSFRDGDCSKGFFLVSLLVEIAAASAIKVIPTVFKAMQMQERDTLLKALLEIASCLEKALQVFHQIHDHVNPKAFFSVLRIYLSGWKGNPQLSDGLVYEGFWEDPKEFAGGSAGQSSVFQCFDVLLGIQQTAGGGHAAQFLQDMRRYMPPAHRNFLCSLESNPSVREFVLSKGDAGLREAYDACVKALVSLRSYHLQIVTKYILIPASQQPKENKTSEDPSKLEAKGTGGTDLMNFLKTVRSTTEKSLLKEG
A short description of test [3]: Inhibition of human muscle mitochondrial complex 1 by spectrophotometric assay.
Test [4] deals with Epidermal growth factor receptor (Homo sapiens, UniProt P00533). Nature of the test: Inhibition of human EGFR incubated for 2 hrs by Kinase-Glo luminescent kinase assay.
Sequence of Epidermal growth factor receptor (P00533 whole entry): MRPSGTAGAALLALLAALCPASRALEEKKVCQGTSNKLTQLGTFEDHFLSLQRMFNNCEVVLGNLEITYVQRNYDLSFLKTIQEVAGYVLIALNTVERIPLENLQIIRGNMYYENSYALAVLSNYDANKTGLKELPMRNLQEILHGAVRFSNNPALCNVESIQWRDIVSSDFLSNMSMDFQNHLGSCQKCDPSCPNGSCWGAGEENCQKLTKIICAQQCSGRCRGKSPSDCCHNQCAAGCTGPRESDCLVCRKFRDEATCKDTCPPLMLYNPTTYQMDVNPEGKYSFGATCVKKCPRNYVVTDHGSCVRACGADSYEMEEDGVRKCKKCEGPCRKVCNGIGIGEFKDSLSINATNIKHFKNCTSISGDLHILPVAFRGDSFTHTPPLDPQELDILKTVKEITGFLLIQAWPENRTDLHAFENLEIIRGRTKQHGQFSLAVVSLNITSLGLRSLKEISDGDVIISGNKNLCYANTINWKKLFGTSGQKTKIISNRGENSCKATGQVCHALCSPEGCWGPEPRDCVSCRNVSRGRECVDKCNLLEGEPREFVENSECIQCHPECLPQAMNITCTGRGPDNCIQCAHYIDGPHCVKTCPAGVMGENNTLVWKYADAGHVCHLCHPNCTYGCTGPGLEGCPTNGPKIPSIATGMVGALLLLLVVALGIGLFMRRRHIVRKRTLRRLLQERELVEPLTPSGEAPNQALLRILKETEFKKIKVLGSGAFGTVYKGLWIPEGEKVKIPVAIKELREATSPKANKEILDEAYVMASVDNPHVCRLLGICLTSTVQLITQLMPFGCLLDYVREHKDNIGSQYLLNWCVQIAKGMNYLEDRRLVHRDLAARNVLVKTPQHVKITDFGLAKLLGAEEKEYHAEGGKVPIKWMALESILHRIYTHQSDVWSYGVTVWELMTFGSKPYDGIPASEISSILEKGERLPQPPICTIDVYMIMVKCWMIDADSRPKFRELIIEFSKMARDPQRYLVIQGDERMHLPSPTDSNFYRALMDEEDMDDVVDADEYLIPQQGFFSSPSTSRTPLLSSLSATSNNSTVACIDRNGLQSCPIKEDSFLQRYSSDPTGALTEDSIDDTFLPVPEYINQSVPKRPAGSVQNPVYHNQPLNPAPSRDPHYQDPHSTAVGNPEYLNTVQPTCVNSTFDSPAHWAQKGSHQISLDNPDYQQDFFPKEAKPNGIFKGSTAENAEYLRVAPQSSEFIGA
In test [5] the target is T1, Receptor-type tyrosine-protein kinase FLT3 (Homo sapiens, UniProt P36888).
T1 sequence (P36888 whole entry): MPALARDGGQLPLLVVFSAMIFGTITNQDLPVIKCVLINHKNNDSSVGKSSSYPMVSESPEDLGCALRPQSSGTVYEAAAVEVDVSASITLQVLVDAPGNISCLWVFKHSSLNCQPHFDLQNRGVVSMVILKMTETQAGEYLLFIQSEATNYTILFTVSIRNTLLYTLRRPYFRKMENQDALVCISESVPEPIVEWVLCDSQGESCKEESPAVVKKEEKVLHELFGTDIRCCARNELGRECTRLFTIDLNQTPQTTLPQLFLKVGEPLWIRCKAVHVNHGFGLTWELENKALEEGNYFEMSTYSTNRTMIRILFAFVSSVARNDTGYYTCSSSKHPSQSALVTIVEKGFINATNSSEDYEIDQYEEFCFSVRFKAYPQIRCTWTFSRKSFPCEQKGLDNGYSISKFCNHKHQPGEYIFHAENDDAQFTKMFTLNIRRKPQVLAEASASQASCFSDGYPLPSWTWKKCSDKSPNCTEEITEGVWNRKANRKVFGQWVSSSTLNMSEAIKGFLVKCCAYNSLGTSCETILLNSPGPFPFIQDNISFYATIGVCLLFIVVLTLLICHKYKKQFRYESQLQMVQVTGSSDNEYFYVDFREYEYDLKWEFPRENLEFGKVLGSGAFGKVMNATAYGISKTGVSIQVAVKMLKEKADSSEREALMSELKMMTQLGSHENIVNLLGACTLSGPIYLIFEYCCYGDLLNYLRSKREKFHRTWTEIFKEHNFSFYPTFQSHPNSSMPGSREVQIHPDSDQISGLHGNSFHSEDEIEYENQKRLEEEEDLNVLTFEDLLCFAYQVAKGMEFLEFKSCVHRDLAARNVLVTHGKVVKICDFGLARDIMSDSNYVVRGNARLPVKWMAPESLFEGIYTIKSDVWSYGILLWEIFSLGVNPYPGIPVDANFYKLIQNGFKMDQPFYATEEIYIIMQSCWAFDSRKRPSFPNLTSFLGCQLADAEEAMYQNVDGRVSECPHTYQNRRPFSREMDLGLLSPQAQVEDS
Nature of the test: Inhibition of FLT3 (unknown origin) expressed in Sf9 insect cells for 4 hrs by Kinase-Glo assay. For orientation: Kinase-Glo measures the ATP left after a reaction by luminescence.

For test [6], the target named is C-X-C chemokine receptor type 4 (Homo sapiens, UniProt P61073). Briefly: Displacement of 125I-SDF-1 from human CXCR4 expressed in HEK293 cells incubated for 1.5 hrs by Topcount analysis. The test is classed as cell-based. A general note: Loss of bound radioactivity is the signal in a displacement assay; it reports binding, not function.
Sequence of C-X-C chemokine receptor type 4 (P61073 whole entry): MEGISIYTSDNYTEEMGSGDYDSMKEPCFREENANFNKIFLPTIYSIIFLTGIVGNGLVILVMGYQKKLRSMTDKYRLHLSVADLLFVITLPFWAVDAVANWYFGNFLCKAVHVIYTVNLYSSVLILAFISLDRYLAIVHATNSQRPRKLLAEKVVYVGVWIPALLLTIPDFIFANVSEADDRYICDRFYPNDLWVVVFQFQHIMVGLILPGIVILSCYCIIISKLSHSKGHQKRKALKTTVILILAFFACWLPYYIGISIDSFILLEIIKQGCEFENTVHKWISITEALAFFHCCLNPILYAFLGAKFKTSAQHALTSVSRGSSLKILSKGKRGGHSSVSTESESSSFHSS
Another test addresses Mu-type opioid receptor (Homo sapiens, UniProt P35372). Briefly: Inhibition of recombinant mu-opioid receptor (unknown origin) expressed in CHO cells for 60 mins. It is filed as cell-based.
The target in a further test is T2, Aurora kinase A (Homo sapiens, UniProt O14965).
T2 sequence (O14965 whole entry): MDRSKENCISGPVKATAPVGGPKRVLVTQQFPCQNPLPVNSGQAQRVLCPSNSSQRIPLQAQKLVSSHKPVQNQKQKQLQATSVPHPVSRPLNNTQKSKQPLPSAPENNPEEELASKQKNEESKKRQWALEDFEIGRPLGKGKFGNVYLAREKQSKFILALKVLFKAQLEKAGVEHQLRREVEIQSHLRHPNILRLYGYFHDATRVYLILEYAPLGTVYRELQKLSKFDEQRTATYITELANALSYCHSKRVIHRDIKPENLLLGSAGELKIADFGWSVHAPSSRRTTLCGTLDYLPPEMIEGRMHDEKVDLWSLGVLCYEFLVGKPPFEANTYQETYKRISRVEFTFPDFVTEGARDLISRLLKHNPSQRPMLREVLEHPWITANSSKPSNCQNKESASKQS
Nature of the test: Inhibition of Aurora A (unknown origin).

Test [7] concerns the target T3, Tyrosine-protein phosphatase non-receptor type 1 (Homo sapiens, UniProt P18031).
T3 sequence (P18031 whole entry): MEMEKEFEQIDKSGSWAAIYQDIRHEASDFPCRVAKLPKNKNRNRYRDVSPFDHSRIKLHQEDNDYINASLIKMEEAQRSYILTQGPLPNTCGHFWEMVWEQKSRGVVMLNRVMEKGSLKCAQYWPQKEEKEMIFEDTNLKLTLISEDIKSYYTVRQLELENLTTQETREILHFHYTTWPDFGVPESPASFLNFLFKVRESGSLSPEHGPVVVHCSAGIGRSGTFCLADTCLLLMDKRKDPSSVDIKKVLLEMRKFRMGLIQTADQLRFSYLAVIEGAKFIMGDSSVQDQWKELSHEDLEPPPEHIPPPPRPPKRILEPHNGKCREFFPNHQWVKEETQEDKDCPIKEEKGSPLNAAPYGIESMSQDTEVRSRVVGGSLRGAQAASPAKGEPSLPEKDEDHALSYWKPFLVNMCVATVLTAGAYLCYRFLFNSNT
Nature of the test: Inhibition of human PTP1B preincubated with protein for 15 mins followed by DiFMUP addition for 1 hr measured by fluorescence analysis.

Test [8] in a line: Redox cycling activity of the compound assessed as H2O2 production incubated for 15 mins by HRP-PR assay in presence of 0.8 mM DTT.
Test [9] can be described thus: Inhibition of Dengue virus type 2 NS2B-NS3 protease.
The target in another test is T4, Catalase (Homo sapiens, UniProt P04040).
T4 sequence (P04040 whole entry): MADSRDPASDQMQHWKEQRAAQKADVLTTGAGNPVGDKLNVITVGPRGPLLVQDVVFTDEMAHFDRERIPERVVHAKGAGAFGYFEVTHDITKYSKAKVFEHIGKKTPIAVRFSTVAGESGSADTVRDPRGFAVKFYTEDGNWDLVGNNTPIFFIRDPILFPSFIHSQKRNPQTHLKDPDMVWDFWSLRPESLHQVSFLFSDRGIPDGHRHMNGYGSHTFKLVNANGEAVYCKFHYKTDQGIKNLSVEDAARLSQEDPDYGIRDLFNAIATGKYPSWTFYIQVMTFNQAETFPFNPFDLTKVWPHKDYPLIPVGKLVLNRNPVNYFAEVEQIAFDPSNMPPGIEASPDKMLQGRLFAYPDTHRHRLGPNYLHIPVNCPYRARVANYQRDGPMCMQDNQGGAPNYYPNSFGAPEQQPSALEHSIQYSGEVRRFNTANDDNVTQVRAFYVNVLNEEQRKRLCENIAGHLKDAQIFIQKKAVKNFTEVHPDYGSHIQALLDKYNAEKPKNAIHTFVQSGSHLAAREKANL
Briefly: Inhibition of catalase (unknown origin).

Sequence of Tryptophan 2,3-dioxygenase (P48775 whole entry): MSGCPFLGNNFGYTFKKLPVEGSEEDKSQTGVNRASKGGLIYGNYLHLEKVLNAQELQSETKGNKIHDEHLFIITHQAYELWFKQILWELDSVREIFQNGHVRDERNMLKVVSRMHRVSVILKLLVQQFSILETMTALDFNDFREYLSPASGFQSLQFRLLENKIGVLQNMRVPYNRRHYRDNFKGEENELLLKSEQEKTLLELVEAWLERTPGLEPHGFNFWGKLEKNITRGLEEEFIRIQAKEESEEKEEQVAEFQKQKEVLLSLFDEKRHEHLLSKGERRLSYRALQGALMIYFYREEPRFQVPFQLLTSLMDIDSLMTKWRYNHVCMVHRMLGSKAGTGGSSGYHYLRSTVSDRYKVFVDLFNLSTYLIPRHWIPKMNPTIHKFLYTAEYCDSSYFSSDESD
Sequence of Mu-type opioid receptor (P35372 whole entry): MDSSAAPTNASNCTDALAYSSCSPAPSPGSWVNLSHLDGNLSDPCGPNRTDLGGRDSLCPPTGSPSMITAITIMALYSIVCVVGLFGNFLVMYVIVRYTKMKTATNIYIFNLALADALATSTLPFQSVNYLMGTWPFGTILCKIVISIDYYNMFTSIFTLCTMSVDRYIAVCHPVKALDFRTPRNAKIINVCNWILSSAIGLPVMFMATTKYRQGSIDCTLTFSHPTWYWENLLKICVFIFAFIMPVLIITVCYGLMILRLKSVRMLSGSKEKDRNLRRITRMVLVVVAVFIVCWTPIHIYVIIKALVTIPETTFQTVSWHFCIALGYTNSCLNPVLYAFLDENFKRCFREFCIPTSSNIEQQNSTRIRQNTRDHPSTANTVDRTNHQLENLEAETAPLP

In the case of `CCN(CC)C(=O)Cc1ccc(Cn2nnc3c2C(=O)c2ccccc2C3=O)cc1`, the figures for the 50% inhibitory concentration (IC50) in test [1] and in [2] were 0.145 µM and 0.922 µM, respectively.
For `CCN(CC)C(=O)c1ccc(Cn2nnc3c2C(=O)c2ccccc2C3=O)cc1` the same measures were 0.181 µM and 1.93 µM.
For `CC(=O)N1CCN(C(=O)c2ccc(Cn3nnc4c3C(=O)c3ccccc3C4=O)cc2)CC1` the same measures were 0.176 µM and 1.1 µM.
Regarding `CN1CCN(C(=O)c2cccc(Cn3nnc4c3C(=O)c3ccccc3C4=O)c2)CC1`, the IC50 (in [3]; in test [4]; in test [5]; in test [6]; on Mu-type opioid receptor; against Aurora kinase A) was above 10 µM in each case. Besides, the IC50 is above 10 µM in test [7], above 10 µM in test [9], above 10 µM at Catalase and 0.64 µM in test [2]. Besides, in [8], the AC50 is above 50 µM.
Regarding `Cc1ccccc1Cn1nnc2c1C(=O)c1ccccc1C2=O`, the IC50 was above 10 µM in test [3]; above 10 µM in test [4]; above 10 µM in test [5]; above 10 µM in test [6]; 0.561 µM in test [1]; above 10 µM at Mu-type opioid receptor. In addition, the IC50 is above 10 µM at Aurora kinase A, above 10 µM in test [9], above 10 µM at Catalase and 0.809 µM in [2].
Regarding `O=C1c2ccccc2C(=O)c2c1nnn2Cc1ccc(Br)cc1`, the IC50 in [1] was 1.59 µM; in [2], above 10 µM.
For `O=C(O)c1ccc(Cn2nnc3c2C(=O)c2ccccc2C3=O)cc1` the same measures were 0.312 µM and 2.32 µM.
For `O=C1c2ccccc2C(=O)c2c1nnn2Cc1cccc(Cl)c1`, the half-maximal inhibitory concentration (IC50) is 0.711 µM in test [1], above 10 µM in test [7] and 0.767 µM in [2]. The AC50 in test [8] is above 50 µM.
Regarding `CN1CCN(C(=O)c2ccc(Cn3nnc4c3C(=O)c3ccccc3C4=O)cc2)CC1`, the 50% inhibitory concentration (IC50) in test [1] came out at 0.108 µM; in test [2], 2.07 µM.
For `CC(=O)N1CCN(C(=O)c2cccc(Cn3nnc4c3C(=O)c3ccccc3C4=O)c2)CC1` the same measures were 0.059 µM and 0.602 µM.
For the compound `O=C1c2ccccc2C(=O)c2c1nnn2Cc1cccc(Br)c1`, the values for the concentration for half-maximal inhibition (IC50) in test [1] and in test [2] were 0.768 µM and 3.16 µM, respectively.
For `O=C1c2ccccc2C(=O)c2c1nnn2Cc1cccc(C(=O)N2CCOCC2)c1` the same measures were 0.048 µM and 0.936 µM.
For `COC1CCN(C(=O)c2ccc(Cn3nnc4c3C(=O)c3ccccc3C4=O)cc2)CC1` the same measures were 0.209 µM and 1.59 µM.
On to `CCN(CC)C(=O)c1cccc(Cn2nnc3c2C(=O)c2ccccc2C3=O)c1`, for which the values for the IC50 in test [1] and in test [2] were 0.09 µM and 0.977 µM, respectively.
For `O=C(O)c1cccc(Cn2nnc3c2C(=O)c2ccccc2C3=O)c1` the same measures were 0.167 µM and 1.24 µM.
For `Cc1cccc(Cn2nnc3c2C(=O)c2ccccc2C3=O)c1`, the half-maximal inhibitory concentration (IC50) in test [1] was found to be 1.75 µM; in test [2] it was 4.61 µM.
For `O=C1c2ccccc2C(=O)c2c1nnn2Cc1ccc(F)cc1` the same measures were 7.38 µM and 2.59 µM.
In the case of `O=C1c2ccccc2C(=O)c2c1nnn2Cc1ccc(C(=O)N2CCOCC2)cc1`, the figures for the concentration for half-maximal inhibition (IC50) in test [1] and in test [2] were 0.116 µM and 0.982 µM, respectively.
For `O=C1c2ccccc2C(=O)c2c1nnn2Cc1ccc(Cl)cc1` the same measures were 6.46 µM and above 10 µM.
Turning to `Cc1ccc(Cn2nnc3c2C(=O)c2ccccc2C3=O)cc1`, the IC50 worked out at 1.09 µM in [1] and 1.77 µM in test [2].
